Where two headings read alike, the source gives them in different places.
Key:
[1] = target: T1, P-glycoprotein (P-gp) (Homo sapiens, UniProt P08183); test: P-gp transport activity, RHO 123 accumulation in Caco-2 cells in presence of compounds (90 min); type: cell-based; details: 20 µM only during the 90 min incubation with RHO 123
T1 construct: P-glycoprotein (P-gp) activity assessed by fluorescence spectroscopy in Caco-2 cells; endogenous in cells; host or cells: Caco-2 cells (ECACC)
Method: Concerning the second experimental approach used to evaluate the effects of the compounds in P-gp activity, Caco-2 cells were exposed to thioxanthone derivatives (20 µM) only during the 90 min of incubation with the fluorescent substrate (RHO 123, 10 µM). This experimental approach aims to evaluate the potential immediate effects of thioxanthone derivatives on P-gp activity as a result of a direct inhibition or activation of the protein, i.e., not to change the protein expression. […] In contrast, compounds 12 and 13 caused a significant and immediate decrease in P-gp activity (to 82 and 85%, respectively), when compared to control cells (0 µM).
The effect of the tested compounds on P-gp activity was evaluated using rhodamine 123 (RHO 123) as a P-gp fluorescent substrate, and ZOS as a specific third-generation P-gp inhibitor. Indeed, several studies report the use of RHO 123 accumulation/efflux assays for the direct assessment of P-gp activity through the quantification of the intracellular fluorescence of the P-gp substrate. Caco-2 cells were seeded in 24-well plates at a density of 60,000 cells/cm^2 and, three days after seeding, and submitted to two different protocols of RHO 123 accumulation: 1) RHO 123 accumulation in cells pre-exposed to the compounds (20 µM) for 24 h; 2) RHO 123 accumulation in the presence of the tested compounds (20 µM) for 90 min, as previously described.
On the other hand, in the second protocol, the cells were exposed to the tested compounds 30 min prior to addition of the P-gp fluorescent substrate, RHO 123, and remained in contact with the cells only during the substrate accumulation period, thus aiming to detect immediate effects of the tested compounds on P-gp activity as a result of a direct P-gp activation or inhibition. For that purpose, three days after seeding, the cell culture medium was removed, and the cells submitted to the following procedures:
RHO 123 accumulation under normal conditions (NA): pre-exposure to compounds (20 μM), prepared in HBSS (+/+), for 30 min at 37 °C, followed by incubation with RHO 123 (5 μM) for 90 min, at 37 °C, in a humidified 5% CO2 and 95% O2 air atmosphere. Control cells were only exposed to RHO 123.
RHO 123 accumulation in the presence of the P-gp inhibitor (IA): simultaneous pre-exposure to compounds (20 μM) and ZOS (5 μM), both prepared in HBSS (+/+), for 30 min at 37 °C, followed by incubation with RHO 123 (5 μM) for 90 min, at 37 °C, in a humidified 5% CO2 and 95% O2 air atmosphere. Control cells were only exposed to ZOS and RHO 123.
After the 90 min of incubation with RHO 123, the cells were washed twice with HBSS (-/-) and lysed with 1% Triton™ X100, for 30 min, in the dark, at room temperature. RHO 123 intracellular fluorescence was then measured at excitation/emission wavelengths of 485/528 nm, in a multi-well plate reader (PowerWave-X, BioTek Instruments, VT, USA) and expressed as fluorescence intensity (FI). The ratio between the FI after inhibited RHO 123 accumulation (IA) and the FI of non-inhibited RHO 123 accumulation (NA) was the parameter used for comparison, and the results were expressed as a percentage of control cells (Equation (3)). Given the high autofluorescence of several of the tested compounds at the conditions used to measure RHO 123 fluorescence, only compounds 9, 10, 12, 13, and 14 were able to be tested for their potential immediate effect on P-gp activity. Four independent experiments were performed, in triplicate.

[2] = Cytotoxicity in NIH/3T3 cell line (MTT assay); type: cell-based; details: mouse, read-out: IC50 (µM) ± SD, cytotoxicity
Method: Before each cytotoxicity assay using this cell line, cells were seeded in untreated 96-well flat-bottom microtiter plates, following a 4-hour incubation period in a humidified atmosphere (5% CO2, 95% air) at 37 °C [47]. […] Prior to the assay, the cells were seeded for 4 h using 1 × 10^4 cells/well. […] The plates were incubated for 24 h, after which a solution of MTT in PBS was added to each well and incubated for another 4 h. After this, 100 μL of SDS (10% in a 0.01 M HCl solution) was added to each well and incubated overnight at 37 °C. Doxorubicin was used as a positive control. Cell growth was determined in quadruplicate by measuring OD at λ = 540 nm (reference 630 nm) in a Multiscan EX ELISA reader (Thermo Labsystems, Cheshire, WA, USA). […] (2) 100−ODsample−ODmedium control/ODcell control−ODmedium control×100 […]

[3] = tested on: Caco-2 cells; test: Cytotoxicity in Caco-2 cells, neutral red (NR) uptake assay; type: cell-based, human; details: 24 h after exposure
Method: Caco-2 cells were routinely cultured in 75 cm^2 flasks using DMEM with 4.5 g/L glucose supplemented with 10% FBS, 1% NEAA and 1% antibiotic. Cells were maintained at 37 °C, in a 5% CO2 and 95% air atmosphere, and the cell culture medium was changed every 2−3 days. Cultures were passaged weekly by trypsinization (0.25% trypsin/1 mM EDTA). In all experiments, the cells were seeded at a density of 60,000 cells/cm^2 and used three days after seeding, when confluence was reached. The cells used in all experiments were taken between the 55th and 64th passages.
The compounds’ (0−20 μM) cytotoxicity was evaluated by the neutral red (NR) uptake and Sulforhodamine B (SRB) binding assays, 24 h after exposure. Caco-2 cells were seeded onto 96-well plates at a density of 60,000 cells/cm^2 and exposed, after reaching confluence (three days after seeding), to the compounds (0–20 μM), in a fresh cell culture medium. Triton™ X-100 (0.1%) was used as a positive control.
The NR assay is based on the ability of viable cells to incorporate and bind the supravital dye NR into the lysosomes, thus providing a quantitative estimation of the number of viable cells in a culture. Twenty-four hours after exposure to the compounds, the cell culture medium was removed, followed by the addition of fresh cell culture medium containing 50 μg/mL NR, and incubation at 37 °C in a humidified 5% CO2 and 95% air atmosphere, for 90 min. After this incubation period, the cell culture medium was removed, the dye absorbed only by viable cells extracted with absolute ethyl alcohol/distilled water (1:1) with 5% acetic acid, and the absorbance measured at 540 nm in a multiwell plate reader (PowerWaveX BioTek Instruments, VT, USA). The percentage of NR uptake relatively to that of the control cells (0 µM) was used as the cytotoxicity measure. Five independent experiments were performed, in triplicate.

T1 sequence (P08183 whole entry): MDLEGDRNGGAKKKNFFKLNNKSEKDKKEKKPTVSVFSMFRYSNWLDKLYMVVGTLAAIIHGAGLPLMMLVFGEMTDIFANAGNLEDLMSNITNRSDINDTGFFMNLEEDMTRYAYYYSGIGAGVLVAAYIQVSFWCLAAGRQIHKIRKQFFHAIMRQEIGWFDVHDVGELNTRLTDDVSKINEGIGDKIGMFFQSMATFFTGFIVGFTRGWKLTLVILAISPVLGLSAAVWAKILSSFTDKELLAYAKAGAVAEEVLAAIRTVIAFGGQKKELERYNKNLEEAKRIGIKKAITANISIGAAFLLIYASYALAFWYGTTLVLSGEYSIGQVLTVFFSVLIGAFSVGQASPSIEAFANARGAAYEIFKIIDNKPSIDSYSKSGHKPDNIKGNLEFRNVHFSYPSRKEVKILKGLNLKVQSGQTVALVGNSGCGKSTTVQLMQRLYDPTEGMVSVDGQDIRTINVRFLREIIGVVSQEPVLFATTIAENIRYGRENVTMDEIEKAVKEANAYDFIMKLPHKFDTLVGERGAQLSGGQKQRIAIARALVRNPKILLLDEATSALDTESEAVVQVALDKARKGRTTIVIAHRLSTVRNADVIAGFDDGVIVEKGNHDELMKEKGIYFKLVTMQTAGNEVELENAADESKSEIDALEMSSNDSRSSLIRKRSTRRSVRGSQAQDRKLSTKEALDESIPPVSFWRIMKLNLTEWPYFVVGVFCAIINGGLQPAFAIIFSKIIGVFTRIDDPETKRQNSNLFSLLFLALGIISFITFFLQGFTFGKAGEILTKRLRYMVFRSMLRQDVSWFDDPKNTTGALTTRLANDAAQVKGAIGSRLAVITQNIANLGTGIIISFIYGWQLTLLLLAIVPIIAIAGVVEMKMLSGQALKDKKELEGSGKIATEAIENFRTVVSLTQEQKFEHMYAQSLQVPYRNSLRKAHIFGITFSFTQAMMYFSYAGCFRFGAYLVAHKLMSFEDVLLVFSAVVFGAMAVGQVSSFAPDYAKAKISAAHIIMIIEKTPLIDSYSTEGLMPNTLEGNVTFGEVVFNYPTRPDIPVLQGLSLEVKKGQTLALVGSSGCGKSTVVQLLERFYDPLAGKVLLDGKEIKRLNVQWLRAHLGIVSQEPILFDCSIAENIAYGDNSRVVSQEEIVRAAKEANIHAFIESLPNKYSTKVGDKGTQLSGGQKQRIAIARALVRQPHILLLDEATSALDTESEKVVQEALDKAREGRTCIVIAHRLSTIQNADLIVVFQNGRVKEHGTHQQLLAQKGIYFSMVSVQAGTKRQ

SMILES	P-gp activity (control cells 100%) [1]	IC50 at 24 h ([2]; NIH/3T3 mouse fibroblast cells) [µM]	NR uptake (relative to control cells) ([3]; 20 µM)	further results
CCCOc1ccc(Br)c2c(=O)c3ccccc3sc12 [Compound 14, 1-Bromo-4-propoxy-9H-thioxanthen-9-one]	116%	–	–	–
CCCOc1ccc(NS(=O)(=O)c2ccc(C(=O)O)cc2)c2c(=O)c3ccccc3sc12 [Compound 12, 4-[N-(9-Oxo-4-propoxy-9H-thioxanthen-1-yl)sulfamoyl]benzoic acid]	82%	64.5 ± 4.54	–	–
CCCOc1ccc2nc(NCc3ccccc3Cl)nc3c2c1Sc1ccccc1-3 [Compound 17]	–	> 100	95.5%	–
CCCOc1ccc(NCCO)c2c(=O)c3ccccc3sc12 [Compound 10, 1-[(2-Hydroxyethyl)amino]-4-propoxy-9H-thioxanthen-9-one]	no significant differences	–	–	–
CCCOc1ccc(N2CCCCC2)c2c(=O)c3ccccc3sc12 [Compound 3]	–	–	–	IC50 at 24 h [2]: > 100 µM
CCCOc1ccc(NS(=O)(=O)c2ccc(N)cc2)c2c(=O)c3ccccc3sc12 [Compound 13, 4-Amino-N-(9-oxo-4-propoxy-9H-thioxanthen-1-yl)benzenesulfonamide]	85%	> 100	no significant effect	NR uptake (relative to control cells) ([3]; 10 µM): 95.5%
CCCOc1ccc(N2CCNC(=O)C2)c2c(=O)c3ccccc3sc12 [Compound 9, 4-(9-Oxo-4-propoxy-9H-thioxanthen-1-yl)piperazin-2-one]	no significant differences	–	–	–
CCCOc1ccc(Nc2nc(C)cc(C)n2)c2c(=O)c3ccccc3sc12 [Compound 8, 1-[(4,6-Dimethylpyrimidin-2-yl)amino]-4-propoxy-9H-thioxanthen-9-one]	–	> 100	–	–
CCCOc1ccc2ncnc3c2c1Sc1ccccc1-3 [Compound 15]	–	–	92.2%	–
CCCOc1ccc2nc(N)nc3c2c1Sc1ccccc1-3 [Compound 16]	–	–	94.1%	–
